Data: patent publication US4933456A, “Dipyridoxyl phosphate NMRI contrast agents” (Salutar, Inc., priority 1987, dated 1990)
Like-named read-outs stand apart in the source and are kept apart here.

What was measured:
[1] = 10 MHz, 37° C
Method: The relations of protons present in water and plasma exposed to the chelate product of Example 7 was tested by NMR for relaxities, in msec, at 10 MHz, 37° C.

selected body organs = settings: 30 min
Method: Each of four rabbits was injected intravenously with one of the following amounts of the solution obtained in Example 7: 0.01 mmoles/kg, 0.05 mmoles/kg, 0.10 mmoles/kg and 0.20 mmoles/kg. The rabbits were sacrificed 30 min post injection, and the proton relaxation values of selected body organs were measured with NMR, in vitro at 10 MHz.

[2] = Method: The compound DPDP was studied potentiometrically from pH 11.2 to 2.0. Data sets were collected on a custom-built automatic potentiometric titration apparatus composed of a METROHM 655 DOSIMAT automatic buret, a FISHER ACCUMET pH meter with a CORNING calomel combination electrode, a custom-blown water jacketed titration cell, a BRINKMAN LAUDA K-2/R constant temperature bath and a COMMODORE 64 computer. […] Data analysis was performed on an IBM-AT computer using the least squares program, BETA (Harris, W. et al, supra), and the data analysis program, HANDNBAR (Harris, W. et al, supra). The titrants were standardized by phenophthalein titration as follows: KOH was calibrated against potassium hydrogen phthalate (a primary standard), and HCl solutions were calibrated against the KOH standard. […] All solutions were made from distilled, deionized water that was further purified on a MILLI-Q cartridge system, degassed, and then kept under an atmosphere of argon which had been scrubbed for CO2 and O2. Additions of EDTA and Mn(II) solutions were performed using calibrated GILMOT pipets.
The metal complex titration was performed by adding 152.2 mg (0.2383 mmoles) to 74.6 ml of a high pH aqueous solution.

[3] = defects not observable without Mn(DPDP)

With `Cc1ncc(COP(=O)(O)O)c(CN(CCN(CC(=O)[O-])Cc2c(COP(=O)(O)O)cnc(C)c2O)CC(=O)[O-])c1O.[Mn+2]` [Mn(DPDP), sodium-calcium salt of a manganese chelate complex of N,N,-bis-(pyridoxal-5-phosphate)ethylenediamine-N,N'-diacetic acid or N,N'-bis(3-hydroxy-2-methyl-5-phosphonomethyl-4-pyridylmethyl)ethylenediamine-N,N'-diacetic acid] the “T1 (Plasma)” value ([1]; 0.000039 molar) was 1103 ms, the “T1 (Plasma)” value ([1]; 0.000078 molar) was 995 ms and the “T1 (Plasma)” value ([1]; 0.000156 molar) was 856 ms. The “T1 (Water)” value ([1]; 0.000156 molar) was 1470 ms, the “T1 (Plasma)” value ([1]; 0.000312 molar) was 624 ms and the “T1 (Water)” value ([1]; 0.000312 molar) was 1083 ms. The “T1 (Plasma)” value ([1]; 0.000625 molar) was 398 ms, the “T1 (Water)” value ([1]; 0.000625 molar) was 639 ms and the “T1 (Plasma)” value ([1]; 0.00125 molar) was 240 ms. The “T1 (Water)” value ([1]; 0.00125 molar) was 332 ms, the “T1 (Plasma)” value ([1]; 0.0025 molar) was 139 ms and the “T1 (Water)” value ([1]; 0.0025 molar) was 175 ms. For the same compound, the “T2 (Plasma)” value ([1]; 0.0025 molar) was 124 ms, the “T1 (Plasma)” value ([1]; 0.005 molar) was 74 ms and the “T1 (Water)” value ([1]; 0.005 molar) was 100 ms. For the same compound, the “T2 (Plasma)” value ([1]; 0.005 molar) was 68 ms, the “T2 (Water)” value ([1]; 0.005 molar) was 86 ms and the “T1 (Plasma)” value ([1]; 0.010 molar) was 40 ms. For the same compound, the “T1 (Water)” value ([1]; 0.010 molar) was 43 ms, the “T2 (Plasma)” value ([1]; 0.010 molar) was 34 ms and the “T2 (Water)” value ([1]; 0.010 molar) was 41 ms. The “uptake by the heart through the dose range studied” value (selected body organs; 0.05-0.20 mmol/kg, i.v.) was “continues to uptake”, the T1 (selected body organs; Blood, 0.01 mmol/kg i.v.) was 844 ms and the T1 (selected body organs; Blood, 0.05 mmol/kg i.v.) was 613 ms. For the same compound, the T1 (selected body organs; Blood, 0.10 mmol/kg i.v.) was 506 ms, the T1 (selected body organs; Blood, 0.20 mmol/kg i.v.) was 411 ms and the T1 (selected body organs; Brain, 0.01 mmol/kg i.v.) was 554 ms. For the same compound, the T2 (selected body organs; Brain, 0.01 mmol/kg i.v.) was 76 ms, the T1 (selected body organs; Brain, 0.05 mmol/kg i.v.) was 496 ms and the T2 (selected body organs; Brain, 0.05 mmol/kg i.v.) was 82 ms. It also gave a T1 (selected body organs; Brain, 0.10 mmol/kg i.v.) of 590 ms, a T2 (selected body organs; Brain, 0.10 mmol/kg i.v.) of 90 ms and a T1 (selected body organs; Brain, 0.20 mmol/kg i.v.) of 352 ms. It also gave a T2 (selected body organs; Brain, 0.20 mmol/kg i.v.) of 66 ms, a T1 (selected body organs; Fat, 0.05 mmol/kg i.v.) of 200 ms and a T2 (selected body organs; Fat, 0.05 mmol/kg i.v.) of 139 ms. It also gave a T1 (selected body organs; Fat, 0.10 mmol/kg i.v.) of 183 ms, a T2 (selected body organs; Fat, 0.10 mmol/kg i.v.) of 115 ms and a T1 (selected body organs; Fat, 0.20 mmol/kg i.v.) of 192 ms. It also gave a T1 (selected body organs; Heart, 0.05 mmol/kg i.v.) of 353 ms, a T2 (selected body organs; Heart, 0.05 mmol/kg i.v.) of 54 ms and a T1 (selected body organs; Heart, 0.10 mmol/kg i.v.) of 300 ms. It also gave a T2 (selected body organs; Heart, 0.10 mmol/kg i.v.) of 51 ms, a T1 (selected body organs; Heart, 0.20 mmol/kg i.v.) of 205 ms and a T2 (selected body organs; Heart, 0.20 mmol/kg i.v.) of 47 ms. For the same compound, the T1 (selected body organs; Large Int., 0.01 mmol/kg i.v.) was 283 ms, the T2 (selected body organs; Large Int., 0.01 mmol/kg i.v.) was 64 ms and the T1 (selected body organs; Large Int., 0.05 mmol/kg i.v.) was 365 ms. It also gave a T2 (selected body organs; Large Int., 0.05 mmol/kg i.v.) of 83 ms, a T1 (selected body organs; Large Int., 0.10 mmol/kg i.v.) of 290 ms and a T2 (selected body organs; Large Int., 0.10 mmol/kg i.v.) of 57 ms. It also gave a T1 (selected body organs; Large Int., 0.20 mmol/kg i.v.) of 256 ms, a T2 (selected body organs; Large Int., 0.20 mmol/kg i.v.) of 74 ms and a T1 (selected body organs; Liver, 0.01 mmol/kg i.v.) of 176 ms. For the same compound, the T2 (selected body organs; Liver, 0.01 mmol/kg i.v.) was 39 ms, the T1 (selected body organs; Liver, 0.05 mmol/kg i.v.) was 76 ms and the T2 (selected body organs; Liver, 0.05 mmol/kg i.v.) was 31 ms. It also gave a T1 (selected body organs; Liver, 0.10 mmol/kg i.v.) of 65 ms, a T2 (selected body organs; Liver, 0.10 mmol/kg i.v.) of 23 ms and a T1 (selected body organs; Liver, 0.20 mmol/kg i.v.) of 68 ms. It also gave a T2 (selected body organs; Liver, 0.20 mmol/kg i.v.) of 25 ms, a T1 (selected body organs; Lung, 0.05 mmol/kg i.v.) of 575 ms and a T2 (selected body organs; Lung, 0.05 mmol/kg i.v.) of 113 ms. For the same compound, the T1 (selected body organs; Lung, 0.10 mmol/kg i.v.) was 435 ms, the T2 (selected body organs; Lung, 0.10 mmol/kg i.v.) was 61 ms and the T1 (selected body organs; Lung, 0.20 mmol/kg i.v.) was 376 ms. It also gave a T2 (selected body organs; Lung, 0.20 mmol/kg i.v.) of 63 ms, a T1 (selected body organs; Renal Cort., 0.01 mmol/kg i.v.) of 298 ms and a T2 (selected body organs; Renal Cort., 0.01 mmol/kg i.v.) of 65 ms. For the same compound, the T1 (selected body organs; Renal Cort., 0.05 mmol/kg i.v.) was 210 ms, the T2 (selected body organs; Renal Cort., 0.05 mmol/kg i.v.) was 57 ms and the T1 (selected body organs; Renal Cort., 0.10 mmol/kg i.v.) was 188 ms. It also gave a T2 (selected body organs; Renal Cort., 0.10 mmol/kg i.v.) of 55 ms, a T1 (selected body organs; Renal Cort., 0.20 mmol/kg i.v.) of 143 ms and a T2 (selected body organs; Renal Cort., 0.20 mmol/kg i.v.) of 53 ms. The T1 (selected body organs; Renal Med., 0.01 mmol/kg i.v.) was 502 ms, the T2 (selected body organs; Renal Med., 0.01 mmol/kg i.v.) was 99 ms and the T1 (selected body organs; Renal Med., 0.05 mmol/kg i.v.) was 223 ms. It also gave a T2 (selected body organs; Renal Med., 0.05 mmol/kg i.v.) of 57 ms, a T1 (selected body organs; Renal Med., 0.10 mmol/kg i.v.) of 209 ms and a T2 (selected body organs; Renal Med., 0.10 mmol/kg i.v.) of 48 ms. For the same compound, the T1 (selected body organs; Renal Med., 0.20 mmol/kg i.v.) was 127 ms, the T2 (selected body organs; Renal Med., 0.20 mmol/kg i.v.) was 60 ms and the T1 (selected body organs; Skel. Musc., 0.05 mmol/kg i.v.) was 494 ms. For the same compound, the T2 (selected body organs; Skel. Musc., 0.05 mmol/kg i.v.) was 47 ms, the T1 (selected body organs; Skel. Musc., 0.10 mmol/kg i.v.) was 425 ms and the T2 (selected body organs; Skel. Musc., 0.10 mmol/kg i.v.) was 31 ms. The T1 (selected body organs; Skel. Musc., 0.20 mmol/kg i.v.) was 232 ms, the T2 (selected body organs; Skel. Musc., 0.20 mmol/kg i.v.) was 31 ms and the T1 (selected body organs; Small Int., 0.01 mmol/kg i.v.) was 324 ms. For the same compound, the T2 (selected body organs; Small Int., 0.01 mmol/kg i.v.) was 72 ms, the T1 (selected body organs; Small Int., 0.05 mmol/kg i.v.) was 237 ms and the T2 (selected body organs; Small Int., 0.05 mmol/kg i.v.) was 52 ms. For the same compound, the T1 (selected body organs; Small Int., 0.10 mmol/kg i.v.) was 218 ms, the T2 (selected body organs; Small Int., 0.10 mmol/kg i.v.) was 46 ms and the T1 (selected body organs; Small Int., 0.20 mmol/kg i.v.) was 131 ms. The T2 (selected body organs; Small Int., 0.20 mmol/kg i.v.) was 46 ms, the T1 (selected body organs; Stom., 0.05 mmol/kg i.v.) was 245 ms and the T2 (selected body organs; Stom., 0.05 mmol/kg i.v.) was 41 ms. It also gave a T1 (selected body organs; Stom., 0.10 mmol/kg i.v.) of 242 ms, a T2 (selected body organs; Stom., 0.10 mmol/kg i.v.) of 52 ms and a T1 (selected body organs; Stom., 0.20 mmol/kg i.v.) of 271 ms. The T2 (selected body organs; Stom., 0.20 mmol/kg i.v.) was 53 ms, the T1 (selected body organs; Urine, 0.01 mmol/kg i.v.) was 821 ms and the T1 (selected body organs; Urine, 0.05 mmol/kg i.v.) was 150 ms. For the same compound, the T2 (selected body organs; Urine, 0.05 mmol/kg i.v.) was 136 ms, the T1 (selected body organs; Urine, 0.10 mmol/kg i.v.) was 90 ms and the T2 (selected body organs; Urine, 0.10 mmol/kg i.v.) was 75 ms. For the same compound, the “dose saturating the liver and kidneys” value (selected body organs; rabbit, i.v.) was 0.10 mmol/kg, the “uptake by the brain” value (selected body organs; rabbit, i.v.) was “observed at higher doses” and the “uptake in the heart, liver and kidneys” value (selected body organs; rabbit, i.v.) was “rapid uptake”. The “log Kf (formation constant)” value ([2]; Mn(II) chelate, potentiometric, pH 11.1 to 2.0) was 14.8, the “binding of Mn(II) ion to the chelating agent at physiological pH” value ([2]; physiological pH, Mn stabilized at the +2 valence) was “quantitatively bound” and the “pH below which the complex begins to demetallate” value ([2]; titration data) was “below 4.5”. For the same compound, the “detection of blood-brain barrier defects by NMRI tomography” value [3] was “defects were observed by NMRI tomography”.
